Experimental data from ChEMBL document CHEMBL1143292, “A small molecule inhibitor selective for a variant ATP-binding site of the chaperonin GroEL” (Bioorg Med Chem Lett, 2009).
Calls of active or inactive are those of the source.

Assays:
[1] = system: Chaperonin GroEL (Escherichia coli (strain K12)), P0A6F5 [I493C]; assay: Inhibition of Escherichia coli 60 kDa chaperonin groEL I493C mutant ATPase activity assessed as inorganic phosphate release at 50 uM by Malachite green complex formation assay
Chain of Chaperonin GroEL (Escherichia coli (strain K12)), P0A6F5 [I493C] (P0A6F5 whole entry I493C): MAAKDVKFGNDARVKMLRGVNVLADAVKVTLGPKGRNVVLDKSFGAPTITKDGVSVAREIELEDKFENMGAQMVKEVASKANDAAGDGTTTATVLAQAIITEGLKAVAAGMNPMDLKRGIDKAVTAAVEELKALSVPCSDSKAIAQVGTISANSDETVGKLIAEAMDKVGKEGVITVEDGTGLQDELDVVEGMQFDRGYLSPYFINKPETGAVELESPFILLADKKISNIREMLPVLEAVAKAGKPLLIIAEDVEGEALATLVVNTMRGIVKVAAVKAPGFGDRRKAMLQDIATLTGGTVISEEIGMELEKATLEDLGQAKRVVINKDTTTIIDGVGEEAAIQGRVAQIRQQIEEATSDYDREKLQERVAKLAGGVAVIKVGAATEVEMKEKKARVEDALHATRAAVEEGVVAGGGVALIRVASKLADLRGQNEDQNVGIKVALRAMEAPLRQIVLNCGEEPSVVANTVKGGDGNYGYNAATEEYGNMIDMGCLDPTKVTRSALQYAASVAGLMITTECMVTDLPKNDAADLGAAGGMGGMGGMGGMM

[2] = system: Escherichia coli; assay: (§1) Inhibition of Escherichia coli 60 kDa chaperonin groEL refolding activity assessed as recovered enzyme activity of pig heart malate dehydrogenase at 50 uM
[3] = system: Chaperonin GroEL (Escherichia coli (strain K12)), P0A6F5 [I493C]; assay: as §1
[4] = system: Escherichia coli; assay: (§2) Inhibition of Escherichia coli 60 kDa chaperonin groEL refolding activity assessed as recovered enzyme activity of bovine rhodanese at 50 uM
[5] = system: Chaperonin GroEL (Escherichia coli (strain K12)), P0A6F5 [I493C]; assay: as §2
[6] = system: Escherichia coli; assay: Inhibition of Escherichia coli 60 kDa chaperonin groEL ATPase activity assessed as inorganic phosphate release at 50 uM by Malachite green complex formation assay
[7] = system: Chaperonin GroEL (Escherichia coli (strain K12)), P0A6F5 [I493C]; assay: Inhibition of Escherichia coli 60 kDa chaperonin groEL I493C mutant

Measured: Activity

CC(C)(C)n1nc(-c2ccc(NC(=O)C3CCCC3)cc2)c2c(N)ncnc21
active: all assays above
